In US11110195B2, “Esculentin 1a derivatives and uses thereof” (University of Houston System, priority 2013, dated 2021):
Read-outs that look alike come from different tables or passages of the source. Residues, ends and D or L forms follow the SMILES beside them.

Experiments:
[1] = system: Pseudomonas aeruginosa ATCC 19660; test: Viable bacterial count in infected corneas; assay type: in vivo, C57BL/6 mice; details: for difference in viable bacterial counts vs PBS control: pre-treated or treated groups; for viable bacterial count in cornea: pre-treated
Description: Corneas were harvested 1, 3 and 5 days after infection and the number of surviving bacteria determined. […] P1=post infection; Pre-trt=pretreatment with Esc-1a(1-21)NH2. *Indicates significant difference, p<0.05, among PBS control and peptide treated groups.
To determine a clinical score, neutrophil infiltration by myeloperoxidase assay (MPO assay) and viable bacterial cell counts in infected and control corneas of C57BL/6 mice with Pseudomonas aeruginosa ATCC 19660 keratitis following pre-treatment and post-infection treatment with Esc-1a(1-21)NH2 up to 5 days post-infection (PI) the following experiment was performed. In these experiments pre-treatment refers to a group of animals where treatment was initiated 24 hrs before infection then continued after infection.
To quantitate viable bacteria, a 100 μl aliquot from the corneal homogenates was serially diluted 1:10 in sterile PBS. Duplicate aliquots (20 μl) of each dilution, including the original homogenate, were plated onto nutrient agar. Plates were incubated for 14-16 h at 37° C.
The harvested corneas were homogenized, plated on growth media and the bacterial colonies recovered counted 14-18 hours post plating. Data plotted (FIG. 7) show the viable bacterial counts obtained from an average of 3 independent experiments.

Raw 264.7 macrophages = test: MTT viability assay, Raw 264.7 macrophages; details: 128 μM, 24 h incubation
Experimental: (§1) Cell viability is expressed as percentage with respect to the control (cells not treated with the peptides). Data points represent the mean of triplicate samples ±SEM. […] The levels of statistical significance between the two peptides are indicated as follows: **p<0.01, ***p<0.001.
(§2) Cells were plated in wells of a microtiter plate, at 4×10^4 cells/well in DMEM supplemented with 2 mM glutamine and 2% FBS (for A549 cells) or DMEM containing 2 mM glutamine, non-essential amino acids (NEAA), sodium pyruvate and 2% FBS (for Raw 264.7 macrophages). After overnight incubation at 37° C. in a 5% CO2 atmosphere, the medium was replaced with 100 μl fresh serum-free medium supplemented with the peptides at different concentrations. After 24 h of peptide treatment, cell viability was determined by a MTT assay.

[2] = MTT viability assay, Raw 264.7 macrophages; details: mouse, Raw 264.7 macrophages
Experimental: as §1, §2

P. aeruginosa R1 biofilm = details: 4 μM, 2 hours treatment
Experimental: (§3) Data points are the mean±SEM of three independent experiments. The levels of statistically significant differences between the two peptides are indicated as follows *P<0.05, **P<0.01, ***P<0.001
(§4) The reference strain and the clinical isolates were grown at 37° C. in Luria-Bertani broth (LB) to mid-log phase (optical density of 0.8 at 590 nm). With the help of tweezers, silicone hydrogel narafilcon A soft CL (1-Day ACUVUE TruEye) were removed from the manufacturer's containers, and washed thrice in phosphate buffered saline (PBS). The lenses were then immersed into wells of a 24-multiwell plate, each well containing 1 mL of bacterial inoculum in 1/10 LB at a concentration of 5×10^4 colony-forming units (CFU)/mL. Noteworthy, the number of bacteria isolated from CL storage cases has been reported to range from 1 to 6×10^4 CFU/case (2, 10). Therefore, in order to reproduce a more realistic level of bacteria to which CLs can be exposed, an inoculum size of 5×10^4 CFU/mL was used for biofilm formation.
(§5) The plate was then incubated in a humidified incubator at 37° C. at 125 rpm to allow biofilm formation on the surface of both lens sides. After 20 hours of incubation, each lens was washed thrice with PBS to remove any non-adherent planktonic cells.
(§6) The lenses were then transferred into wells of a new 24-multiwell plate, each well containing serial dilutions of Esc-1a(1-21)NH2 and Esc-1a(1-21)-1cNH2 in PBS. For […] controls, the lenses were immersed in sterile PBS. The new plate was then incubated at 37° C. for 2 hours with gentle shaking (125 rpm). After peptide treatment, each lens was washed thrice in PBS and transferred into wells of another 24-multiwell plate, each well containing 350 μL of 0.5 mg/mL of 3-(4,5-dimethylthiazol-2-yl)-2,5-diphenyltetrazolium bromide (MTT, from Sigma Aldrich, Milan, Italy) in Hank's solution (136 mM NaCl; 0.34 mM Na2HPO4; 0.44 mMKH2PO4; 5.4 mM KCl; 4.1 mM NaHCO3 pH 7.2, supplemented with 5.5 mM D-glucose) as previously reported (8). The killing of biofilms was determined as a function of the inhibition of MTT reduction to insoluble formazan crystals by bacterial reductases. The plate was incubated again for 2 hours (125 rpm) at 37° C. Formazan crystals were solubilized by the addition of acidified isopropanol. During overnight incubation at room temperature the resulting purple color was absorbed by the lens. Afterward, each lens was soaked in absolute ethanol (500 μL in each well) to decolor it. Aliquots of 100 μL were finally transferred to the wells of a 96-multiwell plate and absorbance was measured at 590 nm using a microplate reader (Infine M 200, Tecan). Untreated bacterial cells in PBS were the control. Percentage of killing was calculated according to the formula: [1−(Abs of treated samples−Abs of blank/Abs of control samples-Abs of blank)][…], where the blank was the solvent PBS.

[3] = system: P. aeruginosa ATCC 27853 biofilm; details: 2 hours treatment
Experimental: as §3, §4, §5, §6

P. aeruginosa ATCC 27853 = test: Bactericidal activity in the presence of basal human tears; assay type: cell-based, Pseudomonas aeruginosa; details: for percentage of bacteria killed: 20 μM peptide, 90 minutes
Experimental: (§7) FIGS. 2A-2B show the effects of human basal tears on the bactericidal activity of Esc-1a(1-21)NH2 against P. aeruginosa ATCC 27853 (FIG. 2A) and ATCC 19660 (FIG. 2B). Bacterial cells were incubated with the peptide in the presence of different concentrations of tears collected from eighteen consenting adult volunteers with normal ocular surface and pooled. Aliquots were withdrawn for cell counting at different time intervals. Mean data (n=3), expressed as the percentage of bacteria killed by the peptide are shown. *Indicates significant difference, p<0.05.
(§8) 2×10^6 CFU/ml P. aeruginosa (ATCC 27853 or ATCC 19660) were incubated with 1-20 μM Esc-1a(1-21)NH2 in the presence of 50% or 70% v/v tears and aliquots withdrawn, plated and counted after 30, 90 and 120 minutes (n=3).

P. aeruginosa ATCC 19660 = test: as above; assay type: cell-based, Pseudomonas aeruginosa; details: 10 μM peptide, within 30 minutes, 70% (v/v) basal tears
Experimental: as §7, §8

Compound: CC[C@H](C)[C@H](NC(=O)CN)C(=O)N[C@@H](Cc1ccccc1)C(=O)N[C@@H](CO)C(=O)N[C@@H](CCCCN)C(=O)N[C@@H](CC(C)C)C(=O)N[C@@H](C)C(=O)NCC(=O)N[C@@H](CCCCN)C(=O)N[C@@H](CCCCN)C(=O)N[C@H](C(=O)N[C@@H](CCCCN)C(=O)N[C@@H](CC(N)=O)C(=O)N[C@@H](CC(C)C)C(=O)N[C@@H](CC(C)C)C(=O)N[C@H](C(=O)N[C@@H](CO)C(=O)NCC(=O)N[C@@H](CC(C)C)C(=O)N[C@@H](CCCCN)C(=O)NCC(N)=O)[C@@H](C)CC)[C@@H](C)CC [Esc-1a(1-21)NH2] (H-GIFSKLAGKKIKNLLISGLKG-NH2; N-terminus assumed)
- difference in viable bacterial counts vs PBS control ([1]; day 5 PI): 4 log10
- difference in viable bacterial counts vs PBS control ([1]; days 1 and 3 PI): 2-3 log10 CFU
- viable bacterial count in cornea ([1]; day 1 PI): 3.35 log10 CFU
- viable bacterial count in cornea ([1]; day 3 PI): 3.7 log10 CFU
- viable bacterial count in cornea ([1]; day 5 PI): 3.47 log10 CFU
- killing (Raw 264.7 macrophages): 100%
- CC50 at 24 h [2]: 64 µM
- biofilm killing (P. aeruginosa R1 biofilm): 0%
- biofilm killing ([3]; 4 μM): activity was lost
- biofilm killing ([3]; 32 μM): more than 50%
- percentage of bacteria killed (P. aeruginosa ATCC 27853; 50% v/v basal tears): 100%
- percentage of bacteria killed (P. aeruginosa ATCC 27853; 70% v/v basal tears): 70%
- retention of activity in basal tears (P. aeruginosa ATCC 27853; 1-20 μM peptide, 50% or 70% v/v basal tears): the majority of Esc-1a(1-21)NH2 activity was retained
- killing of bacteria (P. aeruginosa ATCC 19660): complete killing
